Data as given in patent publication US6660722B2, “Therapeutical treatments” (Laboratoires Goemar S.A., priority 2001, dated 2003).

Columns and labels:
[1] = tested on: target cells of tumor cell line YAC-1; assay: in vitro cytotoxicity assay of NK cells (mouse splenocytes pre-treated with glucan) on YAC-1 target cells, CYTOTOX 96 LDH release; type: cell-based, Balb/c mice; design: stimulated NK cells more cytotoxic than the control: concentration or dose not given beside the values; details: for NK cell killing more active than BEI: versus BEI-stimulated cell killing; for NK cell killing more active than lentinan: versus Lentinan-stimulated NK cell killing; for stimulated NK cells more cytotoxic than the control: versus unstimulated NK cells
Procedure: In that respect, Applicants first carried out an in vitro cytotoxicity assay on spleen cells isolated from spleen of Balb/c mice by standard methods.
These tests were conducted to evaluate the effects of soluble laminarin on the cytotoxicity of NK (Natural Killer) cells of mouse and to compare these effects with those of two known glucans, ie.
The spleens isolated from the above said Balb/c mice were placed into Petri dishes containing RPMI 1640 medium obtained from Life Technologies USA, supplemented with 5% by weight of FCS (fetal calf serum from Life Technologies USA). The spleens were cut into small pieces and a suspension was made by pressing the minced spleens against the bottom of Petri dishes containing PBS (Phosphate Buffered Saline obtained from Biowhitaker Inc,8830 Biggsford Road, Walkersville, Md. 21793 USA). The thus obtained pieces of tissue were gently teased over stainless steel screens using a plunger of a 5-ml syringe. Large debris and cell clumps were removed by layering the cell suspension over 3 ml of heat-inactivated FCS for 10 minutes on ice. After elimination of erythrocytes by incubation during 10 seconds in distilled water and five washes in cold PBS, the thus obtained cells which are called splenocytes, were resuspended in PBS and counted.
The evaluation of the cytotoxicity of these cell suspensions was conducted by suing a non radioactive cytotoxicity assay marketed under the trademark CYTOTOX 96 by Promega, Madison, Wis., USA.
For these experiments, the splenocytes which are also called “effector cells” were pre-treated during 30 minutes by mixing the suspensions containing them respectively with soluble laminarin, with lentinan and with BEI glucan; the mixtures were subsequently incubated with suspensions of target cells of tumor cell line YAC-1 which is known to be relatively […] to normal inactivated N K cells.
The specificity of the assay was established by using the following three different ratios effector cells/target cells denoted ET: 10:1, 50:1 and 100:1.
For each ratio, 3 counts were carried out and experiments were repeated 3 times on 3 different days.
Controls consisted of effector cells incubated only with PBS.
More particularly, the above cell suspensions of splenocytes (effector cells) were diluted to 10^6 cells/ml and placed in individual wells of V-shaped 96-well microplates at a concentration of 0.1 ml/well.
Laminarin, lentinan and BEI glucan which occur in the form of powders, were added after dissolution in PBS at an identical concentration of 2 μg/ml in PBS and the plates were incubated for 30 minutes at 37° C. in an humidified CO2 incubator.
After incubation, the plates i.e. the incubated cells contained in the wells were washed three times with RPMI 1640 medium, and 50 μl of the suspension of target cell line YAC-1 were added in each well, respecting the above “effector cells/target cells” ratios or E T: 10:1, 50:1 and 100:1.
For each of these ratios, 3 individual wells were used, the number of target cells being respectively 10^4,2×10^3 and 1×10^3.
In addition, target cells for spontaneous release control, target cells for maximum release control and effector cells release control were introduced into appropriate wells, i.e. 3 individual wells for each concentration used.
Basically, it is necessary to obtain the values of spontaneous release from both target and effector cells, and these values serve as a background. The maximum release control serves as 100%.
After spinning the plates at 250 g for 5 minutes in a centrifuge, the plates were incubated for 4 hours at 35° C. in a humidified CO2 incubator.
For evaluating the cytotoxicity activity of the effector or N K cells, procedure was as follows, using the instructions of the manufacturer PROMEGA.
A quantity of 10 μl of lysis solution, included in the Kit, was added 45 min before the end of incubation into appropriate control wells, i.e. into wells with maximum release control. […]

[2] = tested on: mouse breast cancer cell line 64 Ptas; assay: tumor growth in vivo in mice inoculated with breast cancer cells; details: daily intraperitoneal injection during 14 days; doses 100 and 250 μg per injection (dose of the value not stated)
Procedure: The above said data have been confirmed by additional experiments where the effects of soluble laminarin on tumor growth in vivo were evaluated; yeast derived glucan BEI was used for comparison.
In these additional experiments, mice were inoculated with mouse breast cancer cell line 64 Ptas. Experimental treatment was achieved by daily intraperitoneal injection during 14 days of two different doses of soluble laminarin and BEI diluted in PBS; the said two different doses were respectively 100 and 250 μg of laminarin per injection.
At the end of the 14 days treatment, the mice were killed, tumors were removed and weighted.

oral LD 50 in rats = type: in vivo; details: given orally in rats
Procedure: Its LD 50 is high and was determined as to be greater than 2000 mg/Kg given orally in rats; furthermore there are no special handling requirements.

[3] = solubility of soluble laminarin; type: physicochemical

laminarin [soluble laminarin]
NK cell killing more active than BEI ([1]; ET 10:1): 132%
NK cell killing more active than lentinan ([1]; ET 10:1): 133%
stimulated NK cells more cytotoxic than the control ([1]; ET 10:1): 245%
NK cell killing more active than BEI ([1]; ET 50:1): 122%
NK cell killing more active than lentinan ([1]; ET 50:1): 123%
stimulated NK cells more cytotoxic than the control ([1]; ET 50:1): 196%
NK cell killing more active than BEI ([1]; ET 100:1): 129%
NK cell killing more active than lentinan ([1]; ET 100:1): 130%
stimulated NK cells more cytotoxic than the control ([1]; ET 100:1): 180%
weight of the tumors with respect to the weight of the tumors treated with the control [2]: 28%
LD 50 (oral LD 50 in rats): greater than 2000 mg/Kg
solubility in ethanol, 2-propanol and acetone ([3]; ethanol, 2-propanol and acetone): substantially insoluble
water-soluble ([3]; water): up to 60 g/l
